Results published in patent publication US9115159B2, “Phosphate compounds, a process for their preparation and pharmaceutical compositions containing them” (LES LABORATOIRES SERVIER, priority 2013, dated 2015).

Columns and labels:
[1] = Solubility in aqueous medium buffered to physiological pH (phosphate 0.33M, pH 7.4); assay type: physicochemical; details: phosphate 0.33M, pH = 7.4
Description: The solubilities of the compounds were also measured in a medium buffered to physiological pH (cf. Table 3).

[2] = Pharmacokinetic profile in the Wistar rat, lipid versus aqueous formulation; assay type: in vivo, male Wistar rats; details: Drug from Example 1 administered 100 mg/kg p.o., plasma
Description: The pharmacokinetic profile of N-(4-hydroxyphenyl)-3-{6-[((3S)-3-(4-morpholinyl-methyl)-3,4-dihydro-2(1H)-isoquinolinyl)carbonyl]-1,3-benzodioxol-5-yl}-N-phenyl-5,6,7,8-tetrahydro-1-indolizine carboxamide (also referred to as the drug from Example 1) is also evaluated in a lipid and aqueous formulation in the Wistar rat.
The drug from Example 1 is prepared in an aqueous suspension in hydroxyethylcellulose 1% (w/v) in water and compared to a lipid formulation composed of a mixture of anhydrous ethanol/polyethylene glycol 400/Phosal 50PG ([…], v/v/v). The two formulations are administered by the oral route to male Wistar rats (3 rats per formulation) at a dose of 100 mg/kg p.o. (gavage, 10 mL/kg).
Blood samples are taken at the following points in time from each animal (3 animals/point in time): 0.25 hr, 0.5 hr, 0.75 hr, 1 hr, 2 hrs, 4 hrs, 8 hrs and 24 hrs after oral administration.
The plasma concentrations of the tested compound are determined after extraction followed by liquid chromatography coupled with mass spectrometric detection. The limit of quantification is 0.1 ng/mL.

[3] = In vitro test on human Caco-2 cells, cellular transport A to B; assay type: in vitro ADME; details: human, Caco-2, drug incubated and measured, A to B, 1 or 3 μM, read-out: Papp, the drug after incubation of the drug
In short: (§1)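 Apical-to-basolateral transport, prodrug or drug dosed apically at 1 or 3 μM in duplicate for 120 minutes. Apical samples at 0 and 120 min and basolateral samples at 120 min quantified by LC-MS/MS (LOQ 2 ng/mL) for prodrug and drug. Papp, predicted human Fabs and percent recovery calculated.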

[4] = test system: human Caco-2 cells; experiment: as above; assay type: in vitro ADME; details: drug incubated and measured, 120 minutes
In short: as §1

[5] = aqueous formulation (suspension in hydroxyethylcellulose 1% in water)
[6] = lipid formulation (anhydrous ethanol/polyethylene glycol 400/Phosal 50PG)

- Solubility at 10 μM ([1]; 10 μM): Insoluble
- Solubility at 20 μM ([1]; 20 μM): Insoluble
- Solubility at 50 μM ([1]; 50 μM): Insoluble
- Solubility at 100 μM ([1]; 100 μM): Insoluble
- AUCt, compound measured: Drug from Example 1 [2, 5]: AUCt (ng · h/mL) = 3480
- Cmax, compound measured: Drug from Example 1 [2, 5]: Cmax (ng/mL) = 816
- AUCt, compound measured: Drug from Example 1 [2, 6]: AUCt (ng · h/mL) = 42900
- Cmax, compound measured: Drug from Example 1 [2, 6]: Cmax (ng/mL) = 5070
- Papp A→B at 120 min [3]: 6.5 nm/s
- Yield (experiment yield), the drug after incubation of the drug [4]: Yield (%) = 37
- Fabs (predicted absorbed fraction in humans), the drug after incubation of the drug ([4]; A to B, 1 or 3 μM): Fabs (%) = 67
Compound: O=C(c1cc(-c2cc3c(cc2C(=O)N2Cc4ccccc4C[C@H]2CN2CCOCC2)OCO3)n2c1CCCC2)N(c1ccccc1)c1ccc(O)cc1 [Drug from Example 1, N-(4-hydroxyphenyl)-3-{6-[((3S)-3-(4-morpholinylmethyl)-3,4-dihydro-2(1H)-isoquinolinyl)carbonyl]-1,3-benzodioxol-5-yl}-N-phenyl-5,6,7,8-tetrahydro-1-indolizine carboxamide]
